The values below are quoted from earlier work in article doi:10.1101/2025.09.30.679517v1 (bioRxiv, 2025).

Each structure is given as a SMILES string.

The conditions of the series: human, in vivo, po.

For the compound `COc1ccc2c(c1)[C@]13CCCC[C@@H]1[C@H](C2)N(C)CC3` [dextromethorphan], the primary endpoints result was “reached all primary endpoints” and the tolerability result is “well-tolerated by patients”.
